Reference: patent publication US20050059977A1, “Monitoring circadian activity” (priority 2003, published 2005)

Legend:
pineal gland = assay: In vivo pineal microdialysis with drug infusion through the dialysis membrane; on-line HPLC of melatonin and serotonin (5-HT) secretion; design: species or system rat
Protocol: Adult Sprague Dawley male rats (220-225 g) were house at 20-25° C. with lights on at 11 am (LD 14:10). Food and were available ad libitum throughout the experiment. Illumination was supplied by white fluorescent lamps (600 lux at cage level). Rats were placed in the LD cycles for at least 2 weeks before the start of surgery.
The animals were deeply anesthetized with a combination of Ketamine (10 mg/ml, 0.5 ml/100 g weight, i.p.) and Xylazine (2 mg/ml, 0.5 ml/100 g weight, i.p.). The animals' heads were shaved and positioned in a stereotaxic instrument. A longitudinal incision (approximately 2.5 cm) is made along the midline in the skin from anterior (level of the eyes) to posterior (base of the skull). The sagittal and lambdoid sutures were then exposed by scraping away the periosteum to the temporal muscles. […] The dura was exposed after grinding away the top bone, which was removed using iris forceps after making a cross cut with a scalpel blade (FIG. 1B). […] Bleeding was controlled with cotton wool pledget, or flushed with water and suctioned. Three stainless steel screws were placed nearby in the parietal and frontal bones to serve as anchors. After the animal's head was repositioned 30 degrees downward, the dura matter below the confluence of sinuses was then lifted 5 mm with a hook fixed to the stereotaxic frame (FIG. 1C). The dorsal cerebellum was then pressed downward with a glass blunt tube to expose the pineal gland. The tentorium cerebelli which covers the posterior surface of the pineal and connects to the confluence of the sinuses, was then carefully reflected to visualize the pineal with a micro sharp hook, while the bleeding around the pineal was flushed and suctioned. The pineal vein is visible in the midline of the pineal posterior surface (FIG. 1D) which divides the pineal gland into two parts and drains it to the confluence of the sinuses. The tip of the guide cannula (CMA Microdialysis, N. Chelmsford, Mass.) was then positioned adjacent to either side of the exposed pineal before the skull was closed with dental cement. The rats were allowed to recover for 24 hours before experimentation.
(§1) Pineal microdialysis was carried out as follows. Immediately before sampling, the rat was anesthetized with halothane briefly, the stylet (or dummy probe) was replaced with a microdialysis proble (CMA12, 20 KD cut off, membrane length 4 mm)(CMA Microdialysis, N. Chelmsford, Mass.) and fixed with plastic glue. The dialysis probe was continuously infused via the microbore PEEK tubing (0.65 mm OD, 0.12 mm ID) at a flow rate of 2 ul/min with artificial CSF (Harvard, Holliston, Mass.). Samples were collected at 10 minutes intervals via the PEEK tube into a 20 ul loop of Pollen 8 automatic injector (BAS, West Lafayette, Ind.), which was on-line with the HPLC system. The sample loop was set to be retained in the load position during the 10 minute cycles and was automatically switched to the injection positions briefly, after which the cycle was repeated. The rats were linked to the apparatus for dialysis through a quartz dual channel swivel (Harvard/Instech, Boston, Mass.) to prevent the tubing from entanglement. […]
The analytical condition for the simultaneous detection of 5-HT/NAS/melatonin was based on Drijffiout et al. (J. Neurochem. 61: 936-942 (1993)) with minor modifications. A Shimadzu pump (Shimadzu, Columbia, USA) was used in conjunction with a Shimadzu fluorescence detector (FD, excitation: 280 nm, emission: 345 nm). […]

NAT = assay: Pineal in situ hybridization for NAT RNA after drug infusion by microdialysis; assay type: in vivo, rat
Protocol: as §1, with “entanglement. All pharmacological agents with molecular weights less than […] were delivered to the pineal through the microdialysis tubing. All drugs were infused after dissolving in artificial CSF solution at final concentrations indicated and for the duration described in the figure legends.” for “entanglement.”

[1] = ISO 1 uM infused into pineal for 2.5 hours during the day (14:30 to 17:00), days 7-10 of microdialysis, single rat
[2] = dibutyryl cAMP 10 mM infused through the microdialysis tube during the day

Structure (SMILES)	effect on serotonin (5-HT) output as melatonin output increases (pineal gland; [1])	time after ISO treatment at which melatonin reaches a maximum (pineal gland; [1]) [h]	time after ISO withdrawal within which melatonin decreases (pineal gland; [1]) [h]	time after infusion at which melatonin levels begin to increase (pineal gland; [1]) [h]	NAT RNA expression in pineal sections (in situ hybridization) (NAT; ISO 1 uM infused through dialysis membrane during the day, 12th day of microdialysis, n=5 rats)	melatonin production (pineal gland; [2])	NAT gene induction in pineal sections (in situ hybridization) (NAT; [2])
CC(C)NCC(O)c1ccc(O)c(O)c1 (stereo not shown) [ISO, Isoprenaline]	decreases in a perfectly inverse manner	2	≤ 1	1	restricted to the region surrounding the probe membrane		
CCCC(=O)Nc1ncnc2c1ncn2[C@@H]1O[C@@H]2COP(=O)(O)O[C@H]2[C@H]1OC(=O)CCC [dibutyryl-cAMP]						activated	NAT gene induction is detected
